PubChem BioAssay AID1194 (EPA DSSTox, 2008)
Calls of active or inactive are those of the source.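 Rule for the calls: active = chemicals rated mutagenic or weakly mutagenic in the Salmonella bacterial test by one literature review, or positive overall by another; inconclusive = no clear call, values can overlap the other calls; inactive = the rest.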

System: Salmonella typhimurium Ames mutagenicity, literature compiled
Test: DSSTox (CPDBAS) Carcinogenic Potency Database Salmonella Mutagenicity
Description: The Carcinogenic Potency Database (CPDB) is a unique and widely used international resource of the results of over 6500 chronic, long-term animal cancer tests on over 1500 chemical substances. The CPDB provides easy access to the bioassay literature, with qualitative and quantitative analyses of both positive and negative experiments that have been published over the past 50 years in the general literature and by the National Cancer Institute/National Toxicology Program. The CPDB standardizes the diverse literature of cancer bioassays that vary widely in protocol, histopathological examination and nomenclature, and in the published author's choices of what information to provide in their papers. Results are reported in the CPDB for tests in rats, mice, hamsters, dogs, and nonhuman primates, and are based on the most positive result among all experiments for each sex-species. The DSSTox CPDBAS (all species) file incorporates data from the CPDB Summary Tables for the full list of over 1500 chemical substances tested in at least one species.
A chemical is classified within the CPDB as mutagenic, i.e. "active", in the Salmonella assay if it was evaluated overall as either "mutagenic" or "weakly mutagenic" by Zeiger [Zeiger, E. (1997) Genotoxicity Database. In: Gold and Zeiger, Eds. Handbook of Carcinogenic Potency and Genotoxicity Databases. Boca Raton, FL: CRC Press, pp. 687-729. http://potency.berkeley.edu/CRCbook.html] or as overall "positive" by the EPA Gene-Tox Program [Kier et al. (1986) Mutat. Res. 168: 69-240].

Row | Compound | outcome
1 | O=C(O)c1[nH]n(-c2ccc(S(=O)(=O)O)cc2)c(=O)c1N=Nc1ccc(S(=O)(=O)O)cc1 | inactive; active
2 | Nc1ccc(O)c([N+](=O)[O-])c1 | active
3 | Cc1cc(N=Nc2c(O)ccc3ccccc23)c(S(=O)(=O)O)cc1Cl | active
4 | COc1cc(N=Nc2ccccc2)ccc1N | active
5 | O.O.O.O.O.O.O=S(=O)([O-])[O-].[Ni+2] | inactive; active
6 | Nc1ccc2c(n1)[nH]c1ccccc12 | active
7 | O=[N+]([O-])c1ccc(-c2cscn2)o1 | active; inactive
8 | CCOC(=O)N(C)N=O | active
9 | Cc1ccc(N)c(C)c1 | active
10 | CCCCN(CCCCO)N=O | active; inactive
11 | COc1ccc(C)cc1N | active
12 | IC(I)I | active
13 | Cn1c(N)nc2ncc(-c3ccccc3)cc21 | active
14 | Cc1ccc(N=C=O)cc1N=C=O | active
15 | Cc1cccc(N)c1 | inactive
16 | C=CCN=C=S | active
17 | Cc1c(N)cccc1N | active; inactive
18 | CC(Cl)Cl | inactive; active
19 | CCOP(=S)(OCC)Oc1ccc([N+](=O)[O-])cc1 | inactive
20 | C#C[C@]1(O)CC[C@H]2[C@@H]3CCc4cc(OC)ccc4[C@H]3CC[C@@]21C | inactive
21 | CC(N)=S | inactive; active
22 | Cc1cc(C)c(N=Nc2c(O)c(S(=O)(=O)O)cc3cc(S(=O)(=O)O)ccc23)cc1C | inactive; active
23 | ClCC(Br)CBr (configuration not stated) | active; inactive
24 | O=C(O)c1ccc([N+](=O)[O-])cc1 | active
25 | CCOC(N)=O | active; inactive
26 | Nc1nc(N)c2nc(-c3ccccc3)c(N)nc2n1 | inactive; active

Row | Compound | outcome
27 | CN(N=O)c1ccncc1 | inactive; active
28 | C=CF | active; inactive
29 | O=C/C=C/c1ccccc1 | inactive
30 | c1ccc2c(c1)Nc1ccccc1S2 | inactive
31 | O=P(OC(CCl)CCl)(OC(CCl)CCl)OC(CCl)CCl | active
32 | CCOc1ccc(NC(N)=O)cc1 | inactive; active
33 | C=CC(OC(C)=O)c1ccc2c(c1)OCO2 (configuration not stated) | active
34 | O=CC1CO1 (configuration not stated) | active
35 | CCNc1nc(Cl)nc(NCC)n1 | inactive
36 | CN(C)c1ccc(N=Nc2ccccc2)cc1 | active; inactive
37 | C=CBr | active; inactive
38 | N#Cc1c(Cl)c(Cl)c(Cl)c(C#N)c1Cl | inactive
39 | CC(=O)c1ccc(S(=O)(=O)NC(=O)NC2CCCCC2)cc1 | inactive
40 | S=C(NC1CCCCC1)NC1CCCCC1 | inactive; active
41 | CN(C)/N=N/c1nc[nH]c1C(N)=O | active
42 | CN(CCCC(=O)O)N=O | inactive
43 | CN(C)N=O | active
44 | CCC1CO1 (configuration not stated) | active
45 | C1CNCCN1 | inactive
46 | CCCC[N+](=O)[O-] | inactive; active
47 | Nc1ccc2ccccc2c1 | active; inactive
48 | CCCCC(CC)CO (configuration not stated) | inactive; active
49 | OCCN(CCO)CCO | inactive; active
50 | O=C(O)c1ccccc1 | inactive
51 | OCCOCCOCCO | active; inactive
52 | CC(C)(Oc1ccc(C2CCCc3ccccc32)cc1)C(=O)O (configuration not stated) | inactive

Row | Compound | outcome
53 | CCc1nc(N)nc(N)c1-c1ccc(Cl)cc1 | inactive; active
54 | Cc1ccc(N=Nc2c(O)c(S(=O)(=O)O)cc3ccc(S(=O)(=O)O)cc23)c(C)c1 | active
55 | [C-]1=CC=CC1.[C-]1=CC=CC1.[Cl-].[Cl-].[Ti+4] | active; inactive
56 | COP(=O)(OC)C(O)C(Cl)(Cl)Cl (configuration not stated) | active
57 | CN(N=O)C(=O)c1ccccc1 | active
58 | c1ccc2sc(SSc3nc4ccccc4s3)nc2c1 | active; inactive
59 | CC(=O)Oc1ccccc1C(=O)O | inactive
60 | Nc1nc(N)nc(N)n1 | inactive; active
61 | ClC(Cl)=C(c1ccc(Cl)cc1)c1ccc(Cl)cc1 | inactive; active
62 | CC=O | inactive; active
63 | O.O.O.O.O.O.O.O=S(=O)([O-])[O-].[Co+2] | active
64 | Nc1cccc(N)c1 | active
65 | O=Nc1ccc(NO)cc1 | active; inactive
66 | Nc1ccc(Cl)cc1N | active; inactive
67 | O=C1OC(c2ccc(O)cc2)(c2ccc(O)cc2)c2ccccc21 | inactive
68 | ClCC(Cl)Cl | inactive
69 | Nc1ccc(S(=O)(=O)c2ccc(N)cc2)cc1 | inactive; active
70 | C=CC(=O)OCC | inactive
71 | CC(=O)Nc1nc(NC(C)=O)nc(-c2ccc([N+](=O)[O-])o2)n1 | active; inactive
72 | O=C1C=CC(=O)C=C1 | inactive; active
73 | C1CC2OC2CC1C1CO1 (configuration not stated) | active
74 | CN(N=O)C(N)=O | active
75 | C=CC | active; inactive
76 | O=S(=O)(O)c1ccc(N=Nc2cc(S(=O)(=O)O)c3ccccc3c2O)c2ccccc12 | active; inactive
77 | CNC[C@H](O)c1ccc(O)c(O)c1 | inactive; active
78 | [N-]=[N+]=[N-] | active; inactive

Row | Compound | outcome
79 | CN(C)c1ccc(C(=C2C=CC(=[N+](C)C)C=C2)c2ccc(N(C)C)cc2)cc1 | inactive; active
80 | CC[N+](=O)[O-] | inactive; active
81 | C=C(F)F | active
82 | C=CC(=O)NCO | inactive
83 | CC(C)=CCC/C(C)=C/C=O | inactive; active
84 | NNCCO | active; inactive
85 | CCC(C)c1cc([N+](=O)[O-])cc([N+](=O)[O-])c1O (configuration not stated) | inactive
86 | ClC1=C(Cl)C2(Cl)C3C(Cl)C=CC3C1(Cl)C2(Cl)Cl (configuration not stated) | inactive; active
87 | O=[N+]([O-])c1ccc(-c2nc(NCCO)c3ccccc3n2)s1 | active
88 | Nc1c(Cl)c(Cl)nc(C(=O)O)c1Cl | inactive; active
89 | c1ccc(NNc2ccccc2)cc1 | active
90 | CCN(Cc1cccc(S(=O)(=O)O)c1)c1ccc(C(=C2C=CC(=[N+](CC)Cc3cccc(S(=O)(=O)[O-])c3)C=C2)c2ccc(S(=O)(=O)O)cc2)cc1 | inactive; active
91 | CN(C)CNc1nnc(/C=C/c2ccc([N+](=O)[O-])o2)o1 | active
92 | CC(=O)Nc1ccc(C(=O)CCl)cc1 | active
93 | COc1ccc(C(Cl)=C(c2ccc(OC)cc2)c2ccc(OC)cc2)cc1 | inactive
94 | FC(Cl)(Cl)Cl | inactive; active
95 | Cl/C=C/CCl | active; inactive
96 | O=[N+]([O-])c1cc([As](=O)(O)O)ccc1O | inactive
97 | CN(C)N=Nc1ccccc1 | active
98 | O=NN1CCNCC1 | active
99 | Cc1cnc2ccc3c(nc(N)n3C)c2n1 | active
100 | C1N2CN3CN1CN(C2)C3 | active
101 | O=P1(NCCCl)OCCCN1CCCl (configuration not stated) | active; inactive
102 | CC(C)O | inactive; active
103 | Cc1cccc2cccnc12 | active
104 | [Cl-].[Cl-].[Hg+2] | inactive; active

Row | Compound | outcome
105 | BrCCBr | active
106 | COP(=S)(OC)Oc1ccc(SC)c(C)c1 | inactive; active
107 | CCCCN(N=O)C(N)=O | active
108 | C[C@@H]1Cc2c(Cl)cc(C(=O)N[C@@H](Cc3ccccc3)C(=O)O)c(O)c2C(=O)O1 | inactive
109 | CC(Cl)CCl (configuration not stated) | active; inactive
110 | CC(C)CCCCCCOC(=O)c1ccccc1C(=O)OCCCCCCC(C)C | inactive; active
111 | Cc1c2ccccc2c(C)c2c1ccc1ccccc12 | active
112 | N[C@@H](Cc1c[nH]c2ccccc12)C(=O)O | inactive; active
113 | C=CC#N | active
114 | O=C1c2ccccc2-c2ccc3c4c(ccc1c24)-c1ccccc1C3=O | inactive; active
115 | CC1CN(N=O)CC(C)N1N=O (configuration not stated) | active
116 | C[C@]12CC[C@@H]3c4ccc(O)cc4CC[C@H]3[C@@H]1CC[C@@H]2O | inactive
117 | S=C1NCCN1 | active
118 | C#C[C@]1(O)CC[C@H]2[C@@H]3CCC4=C(CCC(=O)C4)[C@H]3CC[C@@]21C | inactive; active
119 | OC[C@H]1O[C@@](CO)(O[C@H]2O[C@H](CO)[C@@H](O)[C@H](O)[C@H]2O)[C@@H](O)[C@@H]1O | inactive; active
120 | N[C@@H](CCC(=O)O)C(=O)O | inactive; active
121 | CCCN(CCC)c1c([N+](=O)[O-])cc(C(F)(F)F)cc1[N+](=O)[O-] | active
122 | C[N+](=O)[O-] | inactive; active
123 | CCc1ccccc1 | inactive
124 | S=C([S-])NCCNC(=S)[S-].[Zn+2] | inactive; active
125 | COc1cccc2c1C(=O)c1c(O)c3c(c(O)c1C2=O)C[C@@](O)(C(=O)CO)C[C@@H]3O[C@H]1C[C@H](N)[C@H](O)[C@H](C)O1 | active
126 | c1ccc(Nc2ccc(Nc3ccccc3)cc2)cc1 | active; inactive
127 | O=C1C2(Cl)C3(Cl)C4(Cl)C(Cl)(Cl)C5(Cl)C3(Cl)C1(Cl)C5(Cl)C24Cl (configuration not stated) | inactive; active
